Test results as given in patent US20120190666A1, “Heteroaryl Compounds as PIKK Inhibitors” (Amgen Inc., priority 2009, published 2012).
pIC50: −log10 of the molar value.

What was measured:
mTOR = mTOR (Homo sapiens, UniProt P42345); test: mTOR LanthaScreen (TR-FRET, phosphorylation of 4EBP1); assay type: biochemical; settings: phosphorylation of GFP-4E-BP1, 10 μM ATP, 90 minutes
Outline: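 Final reaction: 400 nM GFP-4E-BP1, 10 μM ATP, 0.15 μg/ml mTOR, compound 50 μM down to 23.84 pM (22-point 1:2 series) in 1% DMSO, buffer with 2 mM DTT; 90 min incubation.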

PI3Kα = target: T1, PI3Kα (Homo sapiens, UniProt P42336); test: In vitro PI3K AlphaScreen assay, PI3Kα; assay type: biochemical; settings: PI(4,5)P2 substrate, 20 minutes at room temperature, read-out: P13Kalpha IC50 um
T1 construct: Full length p110 subunits of PI3K α, β and δ, N-terminally labeled with polyHis tag; polyHis (N); made in house; host or cells: Sf9 insect cells (baculovirus)
T1 sequence (P42336 whole entry): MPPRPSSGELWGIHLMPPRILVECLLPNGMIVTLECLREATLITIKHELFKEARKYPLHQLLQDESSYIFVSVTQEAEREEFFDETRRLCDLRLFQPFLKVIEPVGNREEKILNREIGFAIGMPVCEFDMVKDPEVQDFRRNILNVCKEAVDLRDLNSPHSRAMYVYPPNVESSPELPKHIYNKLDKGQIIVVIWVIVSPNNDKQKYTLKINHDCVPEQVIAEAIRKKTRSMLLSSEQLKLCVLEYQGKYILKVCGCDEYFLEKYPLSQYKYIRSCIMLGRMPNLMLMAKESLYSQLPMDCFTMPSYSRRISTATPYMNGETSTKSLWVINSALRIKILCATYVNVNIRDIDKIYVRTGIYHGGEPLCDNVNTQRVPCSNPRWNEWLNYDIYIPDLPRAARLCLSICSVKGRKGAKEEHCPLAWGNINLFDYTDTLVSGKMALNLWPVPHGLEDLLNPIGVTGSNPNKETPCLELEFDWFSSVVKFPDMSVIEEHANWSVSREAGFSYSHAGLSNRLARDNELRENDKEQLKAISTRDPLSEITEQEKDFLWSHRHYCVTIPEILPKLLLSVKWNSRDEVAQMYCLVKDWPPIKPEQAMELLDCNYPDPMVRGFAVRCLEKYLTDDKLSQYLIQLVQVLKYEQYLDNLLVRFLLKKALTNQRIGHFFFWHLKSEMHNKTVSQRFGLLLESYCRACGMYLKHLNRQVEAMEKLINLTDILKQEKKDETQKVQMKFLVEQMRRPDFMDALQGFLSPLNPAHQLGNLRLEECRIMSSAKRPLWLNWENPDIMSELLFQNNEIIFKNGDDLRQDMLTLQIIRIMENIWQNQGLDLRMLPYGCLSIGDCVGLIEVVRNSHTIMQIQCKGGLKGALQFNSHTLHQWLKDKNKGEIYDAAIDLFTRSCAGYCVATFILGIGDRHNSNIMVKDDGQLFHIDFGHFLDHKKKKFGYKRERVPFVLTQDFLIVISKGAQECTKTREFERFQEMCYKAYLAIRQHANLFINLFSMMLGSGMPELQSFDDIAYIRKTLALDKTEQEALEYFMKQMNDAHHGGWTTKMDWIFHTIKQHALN
T1 sequence (P27986 whole entry partner): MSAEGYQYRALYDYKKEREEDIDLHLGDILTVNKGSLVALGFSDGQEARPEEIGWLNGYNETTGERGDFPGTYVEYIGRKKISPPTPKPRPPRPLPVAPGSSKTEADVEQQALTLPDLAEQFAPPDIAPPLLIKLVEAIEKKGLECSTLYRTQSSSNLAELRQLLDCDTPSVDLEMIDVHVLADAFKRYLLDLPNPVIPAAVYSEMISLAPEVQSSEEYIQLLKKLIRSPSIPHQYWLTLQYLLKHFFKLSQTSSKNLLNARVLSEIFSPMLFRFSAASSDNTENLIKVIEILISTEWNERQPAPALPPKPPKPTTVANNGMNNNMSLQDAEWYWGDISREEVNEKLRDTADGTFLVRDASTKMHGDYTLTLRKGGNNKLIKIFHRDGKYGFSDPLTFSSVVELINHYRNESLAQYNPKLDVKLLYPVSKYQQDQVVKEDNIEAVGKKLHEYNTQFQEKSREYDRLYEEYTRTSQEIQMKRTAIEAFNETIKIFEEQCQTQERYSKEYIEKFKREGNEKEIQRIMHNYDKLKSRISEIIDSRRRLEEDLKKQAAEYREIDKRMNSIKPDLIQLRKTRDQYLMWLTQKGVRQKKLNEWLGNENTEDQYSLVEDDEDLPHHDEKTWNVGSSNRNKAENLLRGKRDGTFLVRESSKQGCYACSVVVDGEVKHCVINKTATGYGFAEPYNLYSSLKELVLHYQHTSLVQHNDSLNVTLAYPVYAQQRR
Outline: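 PI3Kα at 1.6 nM (2× stock) with PI(4,5)P2 10 μM and ATP 20 μM (2× stocks) in Tris pH 7, MgCl2, cholate, NaCl, DTT; 20 min at room temperature. Quenched with biotin-IP4/streptavidin-Donor beads, then GST-PIP3-binding protein/anti-GST Acceptor beads, 1.5 h dark; PIP3 formation read as loss of AlphaScreen signal.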

SMILES | pIC50 (mTOR) | pIC50 (PI3Kα)
Cc1nc(N)cc(-c2c(Nc3cccc(N4CCN(C)CC4)c3)nc3cccnn23)n1 [Cpd 151, 3-(6-amino-2-methyl-4-pyrimidinyl)-N-(3-(4-methyl-1-piperazinyl)-phenyl)imidazo[1,2-b]pyridazin-2-amine] | 6.37 | 5.02
Cc1nc(N)nc(-c2c(Nc3cc[nH]n3)nc3cc(OCCN4CCCC4)ccn23)n1 [Cpd 188] | 6.44 | 5.15
Cc1nc(N)cc(-c2c(Nc3ccnn3C(=O)N3CCC3)nc3cccnn23)n1 [Cpd 257, 3-(6-amino-2-methyl-4-pyrimidinyl)-N-(1-(1-azetidinylcarbonyl)-1H-pyrazol-5-yl)imidazo[1,2-b]pyridazin-2-amine] | 5.77 | 4.33
Cc1nc(N)nc(-c2c(Nc3cc[nH]n3)nc3ccc(-c4ccc5c(c4)CCNC5=O)cn23)n1 [Cpd 175, 6-(3-(4-amino-6-methyl-1,3,5-triazin-2-yl)-2-(1H-pyrazol-3-ylamino)imidazo[1,2-a]pyridin-6-yl)-3,4-dihydro-1(2H)-isoquinolinone] | 8.70 | 6.85
COCC(=O)Nc1cc(-c2c(Nc3ccn(C)n3)nc3cccnn23)nc(C)n1 [Cpd 123, 2-methoxy-N-(2-methyl-6-(2-((1-methyl-1H-pyrazol-3-yl)amino)imidazo[1,2-b]pyridazin-3-yl)-4-pyrimidinyl)acetamide] | 6.85 | 5.16
COCCOc1cnnc(Nc2cc(-c3c(Nc4ccc(NC(C)=O)cc4)nc4cccnn34)nc(C)n2)c1 [Cpd 53, N-(4-((3-(6-((5-(2-methoxyethoxy)-3-pyridazinyl)amino)-2-methyl-4-pyrimidinyl)imidazo[1,2-b]pyridazin-2-yl)amino)phenyl)acetamide] | 9.00 | 7.70
CNC(=O)c1cc(Nc2ccn[nH]2)n(-c2cc(N)nc(C)n2)n1 [Cpd 14, 5-(1H-pyrazol-5-ylamino)-1-(6-amino-2-methylpyrimidin-4-yl)-N-methyl-1H-pyrazole-3-carboxamide] | 6.92 | 5.63
Cc1nc(N)nc(-c2c(Nc3cc[nH]n3)nc3ccc(C4=CCN(C(=O)OC(C)(C)C)CC4)cn23)n1 [Cpd 97, tert-butyl 4-(3-(4-amino-6-methyl-1,3,5-triazin-2-yl)-2-(1H-pyrazol-3-ylamino)imidazo[1,2-a]pyridin-6-yl)-3,6-dihydro-1(2H)-pyridinecarboxylate] | 7.80 | 6.46
Cc1nc(N)cc(-c2c(Nc3ccn(-c4ccccn4)n3)nc3ccccn23)n1 [Cpd 216, 3-(6-amino-2-methyl-4-pyrimidinyl)-N-(1-(2-pyridinyl)-1H-pyrazol-3-yl)imidazo[1,2-a]pyridin-2-amine] | 6.07 | 5.86
Cc1nc(NC(=O)CC#N)cc(-c2c(Nc3ccn(C)n3)nc3ccccn23)n1 [Cpd 126, 2-cyano-N-(2-methyl-6-(2-((1-methyl-1H-pyrazol-3-yl)amino)imidazo[1,2-a]pyridin-3-yl)-4-pyrimidinyl)acetamide] | 6.16 | 5.27
Cc1nc(N)nc(-c2c(Nc3cc[nH]n3)nc3ccc(-c4ccc(S(C)(=O)=O)cc4)cn23)n1 [Cpd 344, 3-(4-amino-6-methyl-1,3,5-triazin-2-yl)-6-(4-(methylsulfonyl)phenyl)-N-1H-pyrazol-3-ylimidazo[1,2-a]pyridin-2-amine] | 7.10 | 7.15
Cc1nc(N)nc(-c2c(Nc3ccn(C(=O)Nc4ccccc4)n3)nc3ccccn23)n1 [Cpd 204, 3-((3-(4-amino-6-methyl-1,3,5-triazin-2-yl)imidazo[1,2-a]pyridin-2-yl)amino)-N-phenyl-1H-pyrazole-1-carboxamide] | 7.05 | 5.52
Cc1nc(N)cc(-n2nc(C(=O)Nc3cccnc3)cc2Nc2ccn[nH]2)n1 [Cpd 11, 5-(1H-pyrazol-5-ylamino)-1-(6-amino-2-methylpyrimidin-4-yl)-N-(pyridin-3-yl)-1H-pyrazole-3-carboxamide] | 6.09 | 6.18
Cc1nc(N)nc(-c2c(Nc3ccn(C)n3)nc3ccc(-c4ccc(S(C)(=O)=O)cc4)cn23)n1 [Cpd 354] | 6.49 | 6.11
Cc1nc(NC(=O)C2CC2)cc(-c2c(Nc3cc[nH]n3)nc3cccnn23)n1 [Cpd 120] | 6.54 | 6.00
